Assay results: US11498903B2 (BRISTOL-MYERS SQUIBB COMPANY, priority 2017, dated 2022)
Read-outs that look alike come from different tables or passages of the source.

Target: T1, human APJ receptor (Homo sapiens, UniProt P35414)
T1 construct: expressed in transfected cells
T1 sequence (P35414 1-380): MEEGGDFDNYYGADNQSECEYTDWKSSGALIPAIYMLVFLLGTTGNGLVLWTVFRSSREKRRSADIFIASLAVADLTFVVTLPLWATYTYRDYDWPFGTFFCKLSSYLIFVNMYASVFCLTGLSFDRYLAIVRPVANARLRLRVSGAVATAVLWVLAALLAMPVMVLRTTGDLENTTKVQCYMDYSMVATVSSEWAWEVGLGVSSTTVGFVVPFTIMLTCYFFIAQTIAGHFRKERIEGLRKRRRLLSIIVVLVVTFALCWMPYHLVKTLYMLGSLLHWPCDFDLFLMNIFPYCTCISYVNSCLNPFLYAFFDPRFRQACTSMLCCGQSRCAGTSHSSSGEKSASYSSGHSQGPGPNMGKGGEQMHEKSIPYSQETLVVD
Experiment: Intracellular cAMP accumulation assay (APJ hcAMP, HTRF)
Format: cell-based
Conditions: HEK293 cells stably expressing human APJ receptor
How it was run: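 HEK293 cells stably expressing human APJ, 5,000/well, incubated 30 min at room temperature with compound plus […] and 2 μM forskolin. cAMP read by HTRF against a cAMP standard curve; EC50 from variable-slope sigmoidal fit, Ymax as % of (Pyr1)apelin-13 inhibition.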

[1] = Table 1, inhibition of forskolin-mediated cAMP production, read-out: APJ hcAMP EC50
[2] = Table 2, read-out: APJ cAMP Human EC50

SMILES | EC50 [1] [nM] | EC50 [2] [nM] | EC50 (Table 3, read-out: APJ cAMP Human EC50) [nM]
CCC[C@@H](NC(=O)c1ccc(-c2ccccc2-c2nc3cc(C(C)(C)C)ccc3[nH]2)c(C(=O)O)c1)c1ccccc1 [Example 62, 2′-(5-tert-butyl-1H-1,3-benzodiazol-2-yl)-4-{[(1R)-1-phenylbutyl]carbamoyl}-[1,1′-biphenyl]-2-carboxylic acid] | 10 to 100 | < 10 | –
CCC[C@@H](NC(=O)c1ccc(-c2ccc(Cl)cc2-c2nc3cc(C(C)(C)C)ccc3[nH]2)c(C(=O)O)c1)c1ccccc1 [Example 63, 2′-(5-tert-butyl-1H-1,3-benzodiazol-2-yl)-4′-chloro-4-{[(1R)-1-phenylbutyl]carbamoyl}-[1,1′-biphenyl]-2-carboxylic acid] | 10 to 100 | 10 to 100 | –
COC[C@@H](NC(=O)c1ccc(-c2ccccc2-c2nc3ccccc3[nH]2)c(C(=O)O)c1)c1ccccc1 [Example 66, 2′-(1H-1,3-benzodiazol-2-yl)-4-{[(1S)-2-methoxy-1-phenylethyl]carbamoyl}-[1,1′-biphenyl]-2-carboxylic acid] | 10 to 100 | 10 to 100 | –
CCC[C@H](NC(=O)c1ccc(-c2cc(Cl)ccc2-c2nc3ccccc3[nH]2)c(C(=O)O)c1)c1ccccc1 [Example 71, 2′-(1H-1,3-benzodiazol-2-yl)-5′-chloro-4-{[(1S)-1-phenylbutyl]carbamoyl}-[1,1′-biphenyl]-2-carboxylic acid] | 10 to 100 | 10 to 100 | –
C[C@@H](NC(=O)c1ccc(-c2cc(Cl)ccc2-c2nc3ccccc3[nH]2)c(C(=O)O)c1)c1cccc(Cl)c1 [Example 72, 2′-(1H-1,3-benzodiazol-2-yl)-5′-chloro-4-{[(1R)-1-(3-chlorophenyl)ethyl]carbamoyl}-[1,1′-biphenyl]-2-carboxylic acid] | 10 to 100 | 10 to 100 | –
C[C@@H](NC(=O)c1ccc(-c2cc(Cl)ccc2-c2nc3ccccc3[nH]2)c(C(=O)O)c1)c1cccc2ccccc12 [Example 73, 2′-(1H-1,3-benzodiazol-2-yl)-5′-chloro-4-{[(1R)-1-(naphthalen-1-yl)ethyl]carbamoyl}-[1,1′-biphenyl]-2-carboxylic acid] | 10 to 100 | 10 to 100 | –
COc1cccc([C@@H](C)NC(=O)c2ccc(-c3cc(Cl)ccc3-c3nc4ccccc4[nH]3)c(C(=O)O)c2)c1 [Example 74, 2′-(1H-1,3-benzodiazol-2-yl)-5′-chloro-4-{[(1R)-1-(3-methoxyphenyl)ethyl]carbamoyl}-[1,1′-biphenyl]-2-carboxylic acid] | 10 to 100 | 10 to 100 | –
C[C@@H](NC(=O)c1ccc(-c2cc(Cl)ccc2-c2nc3ccccc3[nH]2)c(C(=O)O)c1)c1ccccc1Cl [Example 75, 2′-(1H-1,3-benzodiazol-2-yl)-5′-chloro-4-{[(1R)-1-(2-chlorophenyl)ethyl]carbamoyl}-[1,1′-biphenyl]-2-carboxylic acid] | 10 to 100 | 10 to 100 | –
C[C@@H](NC(=O)c1ccc(-c2cc(Cl)ccc2-c2nc3ccccc3[nH]2)c(C(=O)O)c1)c1ccccc1 [Example 76, 2′-(1H-1,3-benzodiazol-2-yl)-5′-chloro-4-{[(1R)-1-phenylethyl]carbamoyl}-[1,1′-biphenyl]-2-carboxylic acid] | 10 to 100 | 10 to 100 | –
CN(C)C[C@@H](NC(=O)c1ccc(-c2cc(Cl)ccc2-c2nc3ccccc3[nH]2)c(C(=O)O)c1)c1ccccc1 [Example 77, 2′-(1H-1,3-benzodiazol-2-yl)-5′-chloro-4-{[(1S)-2-(dimethylamino)-1-phenylethyl]carbamoyl}-[1,1′-biphenyl]-2-carboxylic acid] | 10 to 100 | 10 to 100 | –
COC[C@H](Cc1ccccc1)NC(=O)c1ccc(-c2cc(Cl)ccc2-c2nc3ccccc3[nH]2)c(C(=O)O)c1 [Example 78, 2′-(1H-1,3-benzodiazol-2-yl)-5′-chloro-4-{[(2S)-1-methoxy-3-phenylpropan-2-yl]carbamoyl}-[1,1′-biphenyl]-2-carboxylic acid] | 101 to 500 | 101 to 500 | –
CCCC(NC(=O)c1ccc(-c2c(Cl)cccc2-c2nc3cc(OC)c(F)cc3[nH]2)c(C(=O)O)c1)c1ccccc1 [Example 84, (S)-2′-chloro-6′-(6-fluoro-5-methoxy-1H-1,3-benzodiazol-2-yl)-4-{[(1R)-1-phenylbutyl]carbamoyl}-[1,1′-biphenyl]-2-carboxylic acid] | – | – | < 10

Other lines, results leading:

EC50 [1] [nM] | EC50 [2] [nM] | EC50 (Table 3, read-out: APJ cAMP Human EC50) [nM] | SMILES
< 10 | < 10 | – | CCC[C@@H](NC(=O)c1ccc(-c2ccc(Cl)cc2-c2nc3cc(OC)ccc3[nH]2)c(C(=O)O)c1)c1ccccc1 [Example 57, 4′-chloro-2′-(5-methoxy-1H-1,3-benzodiazol-2-yl)-4-{[(1R)-1-phenylbutyl]carbamoyl}-[1,1′-biphenyl]-2-carboxylic acid]
< 10 | < 10 | – | CCC[C@@H](NC(=O)c1ccc(-c2ccccc2-c2nc3cc(OC)ccc3[nH]2)c(C(=O)O)c1)c1ccccc1 [Example 58, 2′-(5-methoxy-1H-1,3-benzodiazol-2-yl)-4-{[(1R)-1-phenylbutyl]carbamoyl}-[1,1′-biphenyl]-2-carboxylic acid]
< 10 | < 10 | – | CCC[C@@H](NC(=O)c1ccc(-c2cc(OC)ccc2-c2nc3cc(OC)ccc3[nH]2)c(C(=O)O)c1)c1ccccc1 [Example 59, 5′-methoxy-2′-(5-methoxy-1H-1,3-benzodiazol-2-yl)-4-{[(1R)-1-phenylbutyl]carbamoyl}-[1,1′-biphenyl]-2-carboxylic acid]
< 10 | < 10 | – | CCC[C@@H](NC(=O)c1ccc(-c2cc(C(F)(F)F)ccc2-c2nc3cc(C(C)(C)C)ccc3[nH]2)c(C(=O)O)c1)c1ccccc1 [Example 60, 2′-(5-tert-butyl-1H-1,3-benzodiazol-2-yl)-4-{[(1R)-1-phenylbutyl]carbamoyl}-5′-(trifluoromethyl)-[1,1′-biphenyl]-2-carboxylic acid]
< 10 | < 10 | – | CCC[C@@H](NC(=O)c1ccc(-c2cc(OC)ccc2-c2nc3cc(C(C)(C)C)ccc3[nH]2)c(C(=O)O)c1)c1ccccc1 [Example 61, 2′-(5-tert-butyl-1H-1,3-benzodiazol-2-yl)-5′-methoxy-4-{[(1R)-1-phenylbutyl]carbamoyl}-[1,1′-biphenyl]-2-carboxylic acid]
< 10 | < 10 | – | COC[C@@H](NC(=O)c1ccc(-c2ccccc2-c2nc3cc(OC)ccc3[nH]2)c(C(=O)O)c1)c1ccccc1 [Example 64, 4-{[(1S)-2-methoxy-1-phenylethyl]carbamoyl}-2′-(5-methoxy-1H-1,3-benzodiazol-2-yl)-[1,1′-biphenyl]-2-carboxylic acid]
< 10 | < 10 | – | COC[C@@H](NC(=O)c1ccc(-c2ccccc2-c2nc3cc(C(C)(C)C)ccc3[nH]2)c(C(=O)O)c1)c1ccccc1 [Example 65, 2′-(5-tert-butyl-1H-1.3-benzodiazol-2-yl)-4-{[(1S)-2-methoxy-1-phenylethyl]carbamoyl}-[1,1′-biphenyl]-2-carboxylic acid]
< 10 | < 10 | – | CCC[C@@H](NC(=O)c1cc(C(=O)O)c(-c2cc(Cl)ccc2-c2nc3cc(OC)ccc3[nH]2)cc1C)c1ccccc1 [Example 67, 5′-chloro-2′-(5-methoxy-1H-1,3-benzodiazol-2-yl)-5-methyl-4-{[(1R)-1-phenylbutyl]carbamoyl}-[1,1′-biphenyl]-2-carboxylic acid]
< 10 | < 10 | – | CCC[C@@H](NC(=O)c1cc(C(=O)O)c(-c2cc(Cl)ccc2-c2nc3cc(C(C)(C)C)ccc3[nH]2)cc1C)c1ccccc1 [Example 68, 2,-(5-tert-butyl-1H-1,3-benzodiazol-2-yl)-5′-chloro-5-methyl-4-{[(1R)-1-phenylbutyl]carbamoyl}-[1,1′-biphenyl]-2-carboxylic acid]
< 10 | < 10 | – | COC[C@@H](NC(=O)c1ccc(-c2cc(Cl)ccc2-c2nc3ccccc3[nH]2)c(C(=O)O)c1)c1ccccc1 [Example 69, 2′-(1H-1,3-benzodiazol-2-yl)-5′-chloro-4-{[(1S)-2-methoxy-1-phenylethyl]carbamoyl}-[1,1′-biphenyl]-2-carboxylic acid]
< 10 | < 10 | – | COc1ccccc1[C@@H](C)NC(=O)c1ccc(-c2cc(Cl)ccc2-c2nc3ccccc3[nH]2)c(C(=O)O)c1 [Example 70, 2′-(1H-1,3-benzodiazol-2-yl)-5′-chloro-4-{[(1R)-1-(2-methoxyphenyl)ethyl]carbamoyl}-[1,1′-biphenyl]-2-carboxylic acid]
< 10 | < 10 | – | COC[C@@H](NC(=O)c1ccc(-c2cc(Cl)ccc2-c2nc3cc(Cl)ccc3[nH]2)c(C(=O)O)c1)c1ccccc1 [Example 79, 5′-chloro-2′-(5-chloro-1H-1,3-benzodiazol-2-yl)-4-{[(1S)-2-methoxy-1-phenylethyl]carbamoyl}-[1,1′-biphenyl]-2-carboxylic acid]
< 10 | < 10 | – | COC[C@@H](NC(=O)c1ccc(-c2cc(Cl)ccc2-c2nc3cc(C(C)(C)C)ccc3[nH]2)c(C(=O)O)c1)c1ccccc1 [Example 80, 2′-(5-tert-butyl-1H-1,3-benzodiazol-2-yl)-5′-chloro-4-{[(1S)-2-methoxy-1-phenylethyl]carbamoyl}-[1,1′-biphenyl]-2-carboxylic acid]
